In publication PMC7284870, “Antimicrobial Peptides from Rat-Tailed Maggots of the Drone Fly Eristalis tenax Show Potent Activity against Multidrug-Resistant Gram-Negative Bacteria” (Microorganisms, 2020):
Where two headings read alike, the source gives them in different places. No end group written: not given here.

Legend:
[1] = tested on: Listeria monocytogenes DSM 20600; assay type: cell-based
Method: (§1) The strains that were used in this study (Table 2 and Table S1) were cultivated at 37 °C in cation-adjusted Mueller–Hinton broth (CAMB) in Erlenmeyer flasks, or on the same medium with agar in Petri dishes. Exceptionally, Mycobacterium smegmatis was cultivated at 37 °C in brain heart infusion (BHI) medium that was supplemented with 1% Tween-80 in Erlenmeyer flasks, or on the same medium lacking detergent but with agar in Petri dishes. Strains listed with Robert Koch Institute (RKI) strain numbers are clinical isolates from the RKI strain collection originating from hospitalized patients in Germany. The remaining strains originated from the Sanofi strain collection and they were originally purchased from the American Type Culture Collection or the German Collection of Microorganisms and Cell Cultures. Meropenem/colistin-resistant strains were maintained, as described above, with the appropriate antibiotic added at levels below the minimal inhibitory concentration (MIC).
(§2) The MIC values were determined in 384-well microtiter plates with an assay volume of 20 µL. Immediately before each assay, the cultures of test organisms (bacteria grown for 18 h, Candida albicans and M. smegmatis grown for 48 h) were diluted with the appropriate medium to a density of 1 × 10^6 cells/mL (C. albicans), 1 × 10^5 cells/mL (M. smegmatis) or 5 × 10^5 cells per mL (other species). […] We transferred 2-µL aliquots from this dilution series to new 384-well microtiter plates while using a CyBio-Well 384-channel automated pipettor (Analytic Jena, Jena, Germany) and added 18 µL of the diluted suspension of each test species using a Viafill reagent dispenser (Integra), thus reducing the final peptide concentration 10-fold to the range 1024–0.03125 µg/mL. […] The growth of M. smegmatis was measured using the BacTiter-Glo luminescence test system (Promega, Madison, WI, USA). The growth of the other species was determined by visual inspection of the microtiter plate and turbidimetry based on the optical density at 600 nm (OD600). The MIC was defined as the peptide concentration at which no bacterial growth was observed. We supplemented the test medium with either 150 mM NaCl or 1.25 mM CaCl2 to represent monovalent and divalent cations to simulate physiological conditions.

[2] = tested on: Proteus mirabilis DSM 4479; assay type: cell-based
Method: as §1, §2

[3] = tested on: Escherichia coli D31; assay type: cell-based
Method: as §1, §2

[4] = tested on: Pseudomonas aeruginosa ATCC 27853; assay type: cell-based
Method: as §1, §2

[5] = tested on: Mycobacterium smegmatis ATCC 607; assay type: cell-based
Method: as §1, §2

[6] = tested on: Staphylococcus epidermidis ATCC 35984; assay type: cell-based
Method: as §1, §2

[7] = tested on: Klebsiella oxytoca RKI 52/07; assay type: cell-based
Method: as §1, §2

[8] = tested on: Staphylococcus aureus ATCC 25923; assay type: cell-based
Method: as §1, §2

[9] = tested on: Enterococcus faecium DSM 17050; assay type: cell-based
Method: as §1, §2

[10] = tested on: S. aureus ATCC 33592; assay type: cell-based, Staphylococcus aureus
Method: as §1, §2

[11] = tested on: A. baumannii RKI 19/09; test: microbe, parasite or virus in culture; assay type: cell-based, Acinetobacter baumannii
Method: as §1, §2

[12] = tested on: E. coli RKI 6A-6; test: microbe, parasite or virus in culture; assay type: cell-based, Escherichia coli
Method: as §1, §2

[13] = tested on: K. pneumoniae RKI 268/15; assay type: cell-based, Klebsiella pneumoniae
Method: as §1, §2

[14] = tested on: K. pneumoniae RKI 68/16; assay type: cell-based, Klebsiella pneumoniae
Method: as §1, §2

[15] = tested on: Canida albicans FH2173; assay type: cell-based, Candida albicans; settings: 24 h
Method: as §1, §2

[16] = tested on: E. coli ATCC 25922
Method: as §1
The MIC values were determined in 384-well microtiter plates with an assay volume of 20 µL. Immediately before each assay, the cultures of test organisms (bacteria grown for 18 h, Candida albicans and M. smegmatis grown for 48 h) were diluted with the appropriate medium to a density of 1 × 10^6 cells/mL (C. albicans), 1 × 10^5 cells/mL (M. smegmatis) or 5 × 10^5 cells per mL (other species). The peptides were dissolved in sterile water at a concentration of 10.24 mg/mL and a 1:2 dilution series was prepared in a 384-well microtiter plate to achieve the concentration range 10,240–0.3125 µg/mL in a volume of 50 µL. We transferred 2-µL aliquots from this dilution series to new 384-well microtiter plates while using a CyBio-Well 384-channel automated pipettor (Analytic Jena, Jena, Germany) and added 18 µL of the diluted suspension of each test species using a Viafill reagent dispenser (Integra), thus reducing the final peptide concentration 10-fold to the range 1024–0.03125 µg/mL. The cells were incubated at 37 °C and 85% relative humidity, shaking at 180 rpm for 48 h (M. smegmatis), 24 h (C. albicans) or 18 h (other species). The growth of M. smegmatis was measured using the BacTiter-Glo luminescence test system (Promega, Madison, WI, USA). The growth of the other species was determined by visual inspection of the microtiter plate and turbidimetry based on the optical density at 600 nm (OD600). […] We supplemented the test medium with either 150 mM NaCl or 1.25 mM CaCl2 to represent monovalent and divalent cations to simulate physiological conditions.

[17] = tested on: Klebsiella pneumoniae DSM 30104; assay type: cell-based
Method: as §1, §2

[18] = tested on: Acinetobacter baumannii ATCC 19606; assay type: cell-based
Method: as §1, §2

[19] = tested on: Enterobacter cloacae RKI 146/09; test: microbe, parasite or virus in culture; assay type: cell-based
Method: as §1, §2

[20] = tested on: K. pneumoniae RKI 93/10; test: microbe, parasite or virus in culture; assay type: cell-based, Klebsiella pneumoniae
Method: as §1, §2

[21] = tested on: E. coli RKI 131/08; test: microbe, parasite or virus in culture; assay type: cell-based, Escherichia coli
Method: as §1, §2

[22] = tested on: Stenotrophomonas maltophilia RKI 136/09; assay type: cell-based; settings: n=3
Method: as §1, §2

[23] = CAMB + 0.075 µg/mL colistin (Col), n=3
[24] = CAMB adjusted to 1.25 mM CaCl2, n=3
[25] = CAMB adjusted to 150 mM NaCl, n=3

GFLKKIGKKLEGAVQRTRDATIQTIAVAQAAANVAATAKQG [EtCec1]
MIC ([1]; DSM 20600, 18 h): >1024 µg/mL | MIC ([2]; DSM 4479, 18 h): >1024 µg/mL | MIC ([3]; D31, 18 h): 16 µg/mL | MIC ([4]; ATCC 27853, 18 h): 256 µg/mL | MIC ([5]; ATCC 607, 48 h): >1024 µg/mL | MIC ([6]; ATCC 35984, 18 h): >1024 µg/mL | MIC ([7]; 18 h): 16 µg/mL | MIC ([8]; ATCC 25923, 18 h): >1024 µg/mL | MIC ([9]; DSM 17050, 18 h): >1024 µg/mL | MIC ([10]; ATCC 33592, 18 h): >1024 µg/mL | MIC ([11]; RKI 19/09, 18 h): 16 µg/mL | MIC ([12]; RKI 6A-6, 18 h): 32 µg/mL | MIC ([13]; RKI 268/15, 18 h): 64 µg/mL | MIC ([14]; RKI 68/16, 18 h): 64 µg/mL | MIC [15]: >1024 µg/mL | MIC ([16]; ATCC 25922, 18 h): 16 µg/mL

GFLKKVGKKLEGASDLTRDATIQTIAVAQAAANVAATAKQG [EtCec3]
MIC ([1]; DSM 20600, 18 h): >1024 µg/mL | MIC ([2]; DSM 4479, 18 h): >1024 µg/mL | MIC ([17]; DSM 30104, 18 h): >1024 µg/mL | MIC ([4]; ATCC 27853, 18 h): >1024 µg/mL | MIC ([5]; ATCC 607, 48 h): >1024 µg/mL | MIC ([6]; ATCC 35984, 18 h): >1024 µg/mL | MIC ([7]; 18 h): >1024 µg/mL | MIC ([8]; ATCC 25923, 18 h): >1024 µg/mL | MIC ([9]; DSM 17050, 18 h): >1024 µg/mL | MIC ([18]; ATCC 19606, 18 h): >1024 µg/mL | MIC ([19]; RKI 146/09, 18 h): >1024 µg/mL | MIC ([20]; RKI 93/10, 18 h): >1024 µg/mL | MIC ([10]; ATCC 33592, 18 h): >1024 µg/mL | MIC ([11]; RKI 19/09, 18 h): >1024 µg/mL | MIC ([21]; RKI 131/08, 18 h): >1024 µg/mL | MIC [15]: >1024 µg/mL | MIC ([16]; ATCC 25922, 18 h): >1024 µg/mL

GWLRDFGKRIERTGQNIRDATIQTIGIAQEAANVAATLKG [EtCec2]
MIC ([1]; CAMB, 18 h, 37 °C, n = 4): >1024 µg/mL | MIC ([2]; CAMB, 18 h, 37 °C, n = 4): >1024 µg/mL | MIC ([22]; CAMB adjusted to 150 mM NaCl): 256 µg/mL | MIC ([22]; Table 4, CAMB): 512 µg/mL | MIC [17, 23]: 2 µg/mL | MIC [17, 24]: 32 µg/mL | MIC [17, 25]: 16 µg/mL | MIC ([17]; CAMB, 18 h, 37 °C, n = 4): 32 µg/mL | MIC ([17]; Table 4, CAMB, n=3): 32 µg/mL | MIC ([3]; CAMB, 18 h, 37 °C, n = 4): 16 µg/mL | MIC ([4]; CAMB, 18 h, 37 °C, n = 4): >1024 µg/mL | MIC ([5]; BHI, 48 h, 37 °C, BacTiter-Glo, n = 4): >1024 µg/mL | MIC ([6]; CAMB, 18 h, 37 °C, n = 4): >1024 µg/mL | MIC [7, 23]: 2 µg/mL | MIC ([7]; Table 5, CAMB, n=3): 32 µg/mL | MIC ([8]; CAMB, 18 h, 37 °C, n = 4): >1024 µg/mL | MIC ([9]; CAMB, 18 h, 37 °C, n = 4): >1024 µg/mL | MIC [18, 23]: 16 µg/mL | MIC [18, 24]: 64 µg/mL | MIC [18, 25]: 8 µg/mL | MIC ([18]; CAMB, 18 h, 37 °C, n = 4): 32 µg/mL | MIC ([18]; Table 4, CAMB, n=3): 32 µg/mL | MIC [19, 23]: 64 µg/mL | MIC [19, 24]: 128 µg/mL | MIC [19, 25]: 128 µg/mL | MIC ([19]; Table 4, CAMB, n=3): 64 µg/mL | MIC [20, 23]: 16 µg/mL | MIC [20, 24]: 256 µg/mL | MIC [20, 25]: 256 µg/mL | MIC ([20]; Table 4, CAMB, n=3): 128 µg/mL | MIC ([10]; CAMB, 18 h, 37 °C, n = 4): >1024 µg/mL | MIC [11, 23]: 4 µg/mL | MIC [11, 25]: 16 µg/mL | MIC ([11]; Table 4, CAMB, n=3): 16 µg/mL | MIC [21, 23]: 2 µg/mL | MIC [21, 24]: 64 µg/mL | MIC [21, 25]: 32 µg/mL | MIC ([21]; Table 4, CAMB, n=3): 32 µg/mL | MIC ([12]; Table 4, CAMB, n=3): 256 µg/mL | MIC ([13]; Table 4, CAMB, n=3): 256 µg/mL | MIC ([14]; Table 4, CAMB, n=3): 256 µg/mL | MIC ([15]; CAMB, 37 °C, n = 4): >1024 µg/mL | MIC [16, 23]: 4 µg/mL | MIC [16, 24]: 128 µg/mL | MIC [16, 25]: 64 µg/mL | MIC ([16]; CAMB, 18 h, 37 °C, n = 4): 64 µg/mL | MIC ([16]; Table 4, CAMB, n=3): 64 µg/mL

colistin [reference compound]
MIC ([17]; Table 5, CAMB, n=3): 0.5 µg/mL | MIC ([7]; Table 5, CAMB, n=3): 2 µg/mL | MIC ([18]; Table 5, CAMB, n=3): 1 µg/mL | MIC ([19]; Table 5, CAMB, n=3): 2 µg/mL | MIC ([20]; Table 5, CAMB, n=3): 1 µg/mL | MIC ([11]; Table 5, CAMB, n=3): 0.5 µg/mL | MIC ([21]; Table 5, CAMB, n=3): 0.5 µg/mL | MIC ([16]; Table 5, CAMB, n=3): 0.5 µg/mL
